The values below come from US20250325570A1, “DOSE AND REGIMEN FOR A HETEROCYCLIC PHOSPHINIC COMPOUND” (PHOST'IN THERAPEUTICS, priority 2022, published 2025).

Data set [1] in a line: First-in-human trial, dose escalation phase: full-course PK profiling of PST3.1a. Format: in vivo. The following applies: for AUC / C-max / T1/2 / T-Max: oral; for Pre dosing: oral bid. An excerpt:
The proposed clinical trial is a first-in-human trial (FIH) in patients with advanced solid tumours, including a dose escalation phase (part I) enrolling patients with any type of tumour with safety/tolerability as the primary endpoint, pharmacokinetics, evaluation of a potential food effect, and efficacy as secondary endpoints, followed by an expansion phase (part II) recruiting patients with glioblastoma (GBM—23 patients, cohort 1), triple negative breast cancer (TNBC—15 patients, cohort 2) and other selected solid tumours (30 patients, cohort 3). The dose for the expansion phase is selected based on the results of the escalation phase. Pharmacodynamics and response prediction is an exploratory objective of this whole FIH study.
To characterize the pharmacokinetics (PK) profile of PST3.1a by establishing the PK profile of the drug including assessment of a potential food effect on drug exposure.
A standard 3+3 design is followed for the escalation phase. PST3.1a is administered orally twice a day (bid) continuously in cycles of 21 days. At each Dose Level (DL), three patients are included and the first patient is observed for at least 21 days before enrolling the following two. Three additional patients are enrolled at each DL if a Dose Limiting Toxicity (DLT) is observed in the first three patients. No intra-patient dose escalation is allowed. The Maximum Tolerated Dose (MTD) is defined as the highest dose at which a DLT is observed in 0/3 or 1/6 patients and is considered as the recommended phase 2 dose (RP2D).
The dose escalation phase includes two steps: • In step 1, one dose (DL1) of PST3.1a is tested, corresponding to the dose of 10 mg/kg/day bid.
Two full-course PK profiling are obtained for each patient: one at C1D1 (Cycle 1/Day 1) in fasted state patients and another at C2D1 (Cycle 2/Day 1) in fed state patients (omitting the evening dose of PST3.1a on CID1 and C2D1). • In step 2, three DL (DL2a to 4a) with PST3.1a administered to fasted patients at the dose of 20, 40 and 70 mg/kg/day bid (i.e. twice a day), respectively, and/or three DL (DL2b to 4b) with PST3.1a administered to fed patients at the dose of 10, 20 and 40 mg/kg/day bid, respectively, could be opened.
For each patient included in the second step of the dose escalation, a full-course PK profiling is performed: • a. for DL2a, 3a and 4a, at C1D1 in fasted state; • b. for DL2b, 3b and 4b at C1D1 in fed state; • c. for DL2b only, 4 days before beginning treatment (C1D4), in fasted state.
PST3.1a is supplied as a drinkable solution in vials of 2 mL and 10 mL. Patients are provided with an appropriate number of 2 mL and 10 mL vials, as well as with a specific dosing device, in order to combine them to reach the appropriate volume. Volumes of DP to be administered at each dosing occasion are rounded in a standardized way according to patient body weight range, as described in Table 2.
PST3.1a is administered per os every 12±1 hours to fasted patients or after a regular meal, according to the schedule of the DL in which the patient is included. Fasting is defined as no food intake for 2 hours before and two hours after study drug administration. Cycles is of 21 days. If treatment is delayed for reasons other than toxicity, a maximal delay of 1 day is accepted.

The nature of data set [2]: Dynamic vapor sorption (DVS) analysis of the crystalline form. Format: physicochemical. From the text: In a particular embodiment, the crystalline form of the invention is non-hygroscopic.
Where [3] appears, read: DL1 = 10 mg/kg/day, FED patients.
Setting [4] is: DL1 = 10 mg/kg/day, fasted patients.
The mark [5] stands for this setting: DL2 = 20 mg/kg/day, fasted patients.
Where [6] appears, read: DL3 = 40 mg/kg/day, fasted patients.

“And” between values parts separate entries of the source, which are not always exact repeats. Equal values may be shown once. Read-outs that look alike come from different tables or passages of the source.

A word on the AUC: it is concentration integrated over time. A word on the half-life: it is how long it takes for the measured level to halve. A low value points to fast loss. For the compound `O=[P@@]1(c2ccccc2)O[C@H](COCc2ccccc2)[C@@H](OCc2ccccc2)[C@H](OCc2ccccc2)C1O` (some centres unmarked) [PST3.1a, 3-Hydroxy-4,5-bis-benzyloxy-6-benzyloxymethyl-2-phenyl-2-oxo-2λ5-[1,2]oxaphosphinane], the “Food effect on drug exposure (fed vs fasted patients)” value in data set [1] (DL1 = 10 mg/kg/day, comparison of Table 4) was “significative fed effect”. The AUC in data set [1] (setting [3]) is 426 ng·h/mL; in data set [1] (setting [4]), 225 ng·h/mL; in data set [1] (setting [6]) it was 650.6 ng·h/mL and 626.6 ng·h/mL; in data set [1] (human, in vivo, po, 10 mg/kg/day, DL1 = 10 mg/kg/day, FED patients, read-out: AUC), 587 ng·h/mL; in data set [1] (human, in vivo, po, 10 mg/kg/day, DL1 = 10 mg/kg/day, fasted patients, read-out: AUC), 310 ng·h/mL; in data set [1] (human, in vivo, po, 20 mg/kg/day, DL2 = 20 mg/kg/day, fasted patients, read-out: AUC), 340 ng·h/mL. Further, the exposure (AUC) in data set [1] (human, in vivo, po, 40 mg/kg/day, DL3 = 40 mg/kg/day, fasted patients, read-out: AUC) worked out at 336 ng·h/mL. The C-max in data set [1] (setting [3]) is 43 ng/mL and 27.9 ng/mL; in data set [1] (setting [4]), 42 ng/mL and 28 ng/mL; in data set [1] (setting [5]) it was 67.7 ng/mL; in data set [1] (setting [6]), 56.2 ng/mL and 97.6 ng/mL and 108.9 ng/mL. Moreover, the results for the T1/2 in data set [1] (setting [3]) and in data set [1] (setting [4]) were 11.7 h and 8.1 h, respectively. Also, the Pre dosing in data set [1] (setting [5]) was 20.6 ng/mL; in data set [1] (setting [6]) it was 25.4 ng/mL and 46.3 ng/mL. The T-Max in data set [1] (setting [5]) was 1 h; in data set [1] (setting [6]) it was 1.5 h and 2 h (2×). The half-life in data set [1] (human, in vivo, po, 10 mg/kg/day, DL1 = 10 mg/kg/day, FED patients) was 17.5 h; in data set [1] (human, in vivo, po, 10 mg/kg/day, DL1 = 10 mg/kg/day, fasted patients), 9.2 h; in data set [1] (human, in vivo, po, 20 mg/kg/day, DL2 = 20 mg/kg/day, fasted patients), 7.9 h. Also, the Hygroscopicity entry in data set [2] (crystalline form) was “non-hygroscopic”. Also, the “Weight loss in DVS analysis” value in data set [2] (relative humidity range 0% RH to 95% RH) is reported as “lower than 0.1%”.
